The values below are quoted from earlier work in patent US7777053B2, “Efficient process for production of carvedilol phosphate” (Wanbury Limited, priority 2007, dated 2010).

Structures can show the parent of a compound that is named as a salt. Where two headings read alike, the source gives them in different places. A value given as a limit tells only on which side of the number the result lay.

Take `COc1ccccc1OCCNCC(O)COc1cccc2[nH]c3ccccc3c12` (stereo not shown) [carvedilol phosphate, phosphate salts of 1-(9H-carbazol-4yloxy)-3-[[2-(2-methoxyphenoxy)ethyl]amino]-propan-2-ol]: for the setting “as described in US 2005/0277689 A1, compared with carvedilol”, the aqueous solubility result was “much higher aqueous solubility”.
For the compound `COc1ccccc1OCCNCC(O)COc1cccc2[nH]c3ccccc3c12` (stereo not shown) [Carvedilol, 1-(9H-carbazol-4yloxy)-3-[[2-(2-methoxyphenoxy)-ethyl]amino]-propan-2-ol], the solubility (neutral or alkaline media, above pH of 9.0) is less than 1 µg/mL. Besides, the saturation solubility entry runs as follows: (pH=5, room temperature) “about 100 μg/ml”; (pH=7, room temperature) “about 23 μg/ml”.
